Experimental data from US20250382270A1, “3-DIARYLMETHYLENES AND USES THEREOF” (Atux Iskay LLC, priority 2020, published 2025).

Key:
A172 glioblastoma cells = assay: A172 cell growth inhibition assay (CellTiter-Glo); assay type: cell-based; settings: Homo sapiens, A 172, 48-72 hours treatment, CellTiter-Glo luminescence, test range 1-30 μM
Method: Compounds were also assayed in an A172 cell growth inhibition assay as follows. A172 glioblastoma cells were cultured in Dulbecco's modified Eagle's medium (DMEM) supplemented with 10% fetal bovine serum and 1% Penicillin-streptomycin. Incubation was performed at 37° C. and 5% CO2.
A172 cells were seeded at 3000-3500 cells/90 ul growth medium per well on 96-well tissue culture plates. Cells were incubated overnight to allow them to recover and reattach. Next day cells were treated with tested compounds and incubated for 48-72 hours.
Cell Proliferation assays in triplicate were performed at each concentration. Compounds test range was 1-30 μM (0, 5, 10, 15, 20, 25, and 30). The compounds were dissolved in DMSO. A series of dilutions were made in 1% DMSO in growth medium so that the final concentration of DMSO is 0.1% in all of treatments.
After treatment, cells were allowed to equilibrate at room temperature for ½ to one hour. Cell proliferation was measured by Luminescence quantification using Promega CellTiter-Glo Luminescent Cell Viability Assay. To perform the assay, 100 μl of Celltiter-Glo substrate was added to each well, plates were shake for 2 minutes and allowed to equilibrate for 10 minutes at room temperature. Luminescence intensity was measured using the Spectramax i3x plate reader.
The Luminescence intensity data were analyzed using the computer software Graphpad Prism. In the absence of the compound, the luminescence intensity (Lr) in each data set was defined as 100% cell viability. The percent cell in the presence of each compound was calculated according to the following equation: […], where L=the luminescence intensity in the presence of the compound.
The values of % cell versus a series of compound concentrations (0, 5, 10, 15, 20, 25, and 30 μM) were then plotted using nonlinear regression analysis of Sigmoidal dose-response curve. IC50 values were determined by the concentration causing a half-maximal percent activity.

A549 cells = assay: A549 cell growth inhibition assay (alamarBlue); assay type: cell-based; settings: Homo sapiens, 72 hours treatment, alamarBlue fluorescence
Method: Example compounds 1a, 2, 4 and 6 were assayed in an A549 cell growth inhibition assay as follows. A549 cells were cultured in DMEM medium with supplement of 10% FBS and 1% Pen-strep. Assay conditions: to perform the proliferation assay, A549 cells were seeded at 5000 cells/90 μl growth medium/well on 96-well black clear-bottom tissue culture plate. Cells were incubated at 37° C. and 5% CO2 overnight to allow them to recover and reattach. Next day cells were treated with tested compounds for 72 hours. After treatment, cell proliferation was measured by Fluorescent quantitation of alamarBlue reagent. The alamarBlue assay incorporates a fluorometric/colorimetric growth indicator based on detection of metabolic activity. Specifically, resazurin, the active ingredient of alamarBlue reagent, is blue in color and virtually non-fluorescent. Upon entering cells, resazurin is reduced to resorufin, a compound that is red in color and highly fluorescent. Continued cell growth maintains a reduced environment, therefore increasing the overall fluorescence and color of the media surrounding cells. Our experiment has shown that the fluorescence intensity of alamarBlue reagent was directly proportional to cell number. To perform the alamarBlue assay, 10 μl of alamarBlue reagent was added to each well and the plate was incubated at 37° C. for an additional 1-4 hours. Fluorescence intensity was measured at an excitation of 530 nm and an emission of 590 nm using a BioTek Synergy™ 2 microplate reader.
Data analysis. Cell proliferation assays in triplicate were performed at each concentration. The fluorescent intensity data were analyzed using the computer software, Graphpad Prism. In the absence of the compound, the fluorescent intensity (Ft) in each data set was defined as 100%. In the absence of cells, the fluorescent intensity (Fb) in each data set was defined as 0%. The percent cell in the presence of each compound was calculated according to the following equation: % cell=(F-Fb)/(Ft-Fb), where F=the fluorescent intensity in the presence of the compound, Fb=the fluorescent intensity in the absence of cells, and Ft=the fluorescent intensity in the absence of the compound. The values of % cell versus a series of compound concentrations were then plotted using non-linear regression analysis of Sigmoidal dose-response curve generated with the equation Y=B+(T-B)/1+10^((LogEC50-X)×Hill Slope), where Y=percent cell, B=minimum percent cell, T=maximum percent cell, X=logarithm of compound and Hill Slope=slope factor or Hill coefficient. The IC50 value was determined by the concentration causing a half-maximal percent activity.

Compound	IC50 (A172 glioblastoma cells) [µM]	IC50 (A549 cells) [µM]
O=S(=O)(Nc1ccc(Cl)cc1)N1CCCC(=C(c2ccc(F)cc2)c2ccc(F)cc2)C1 [Example 108]	16.1	
O=[N+]([O-])c1ccc(NS(=O)(=O)N2CCCC(C3c4ccccc4CCc4ccccc43)C2)cc1 (centres unmarked) [Example 42]	51	
CC(C)(C)OC(=O)Nc1ccc(NS(=O)(=O)N2CCCC(C(c3ccc(F)cc3)c3ccc(F)cc3)C2)cc1 (centres unmarked) [Example 103]	10.3	
O=S(=O)(Nc1cccc(OC(F)(F)F)c1)N1CCCC(C2c3ccccc3CCc3ccccc32)C1 (centres unmarked) [Example 113]	10.8	
O=S(=O)(Nc1ccccc1)N1CCCC(=C(c2ccc(F)cc2)c2ccc(F)cc2)C1 [Example 110]	25	
O=S(=O)(NCc1ccc(C(F)(F)F)cc1)N1CCCC(C2c3ccccc3CCc3ccccc32)C1 (centres unmarked) [Example 98]	10.4	
O=S(=O)(Nc1cccc(C(F)(F)F)c1)N1CCOC(C(c2ccc(F)cc2)c2ccc(F)cc2)C1 (centres unmarked) [Example 102]	20.6	
O=S(=O)(Nc1ccc(Cl)cc1)N1CCOC(C(c2ccc(F)cc2)c2ccc(F)cc2)C1 (centres unmarked) [Example 25]	19.4	
O=S(=O)(NCc1ccc(F)cc1)N1CCOC(C(c2ccc(F)cc2)c2ccc(F)cc2)C1 (centres unmarked) [Example 97]	27.2	
O=S(=O)(Nc1ccc(C(F)(F)F)cc1)N1CCOC(C(c2ccc(F)cc2)c2ccc(F)cc2)C1 (centres unmarked) [Example 22]	26	
COc1cccc2c1C(=O)c1c(O)c3c(c(O)c1C2=O)C[C@@](O)(C(=O)CO)C[C@@H]3O[C@H]1C[C@H](N)[C@H](O)[C@H](C)O1 [Doxorubicin, reference compound]		0.34
O=S(=O)(Nc1ccc(OC(F)(F)F)cc1)N1CCCC(=C(c2ccccc2)c2ccccc2)C1 [Example 105]	20.3	
O=S(=O)(Nc1ccc(OC(F)(F)F)cc1)N1CCCC(C2c3ccccc3CCc3ccccc32)C1 (centres unmarked) [Example 37]	11	
O=S(=O)(Nc1ccc(OC(F)(F)F)cc1)N1CCCC(C(c2ccc(F)cc2)c2ccc(F)cc2)C1 (centres unmarked) [Example 1a, 3-(bis(4-fluorophenyl)methyl)-N-(4-(trifluoromethoxy)phenyl)piperidine-1-sulfonamide]	12.1	8.27
O=S(=O)(Nc1cccc(C(F)(F)F)c1)N1CCCC(=C(c2ccc(F)cc2)c2ccc(F)cc2)C1 [Example 111]	30	
O=S(=O)(Nc1ccc(Cl)c(Cl)c1)N1CCOC(C(c2ccc(F)cc2)c2ccc(F)cc2)C1 (centres unmarked) [Example 93]	45	

Compound	IC50 (A172 glioblastoma cells) [µM]	IC50 (A549 cells) [µM]
O=S(=O)(Nc1ccc(OC(F)(F)F)cc1)N1CCCC(=C(c2ccc(F)cc2)c2ccc(F)cc2)C1 [Example 104]	14.8	
O=S(=O)(Nc1ccc(OC(F)(F)F)cc1)N1CCOC(C(c2ccc(F)cc2)c2ccc(F)cc2)C1 (centres unmarked) [Example 19, 2-(bis(4-fluorophenyl)methyl)-N-(4-(trifluoromethoxy)phenyl)morpholine-4-sulfonamide]	18.2	
O=S(=O)(Nc1ncc(C(F)(F)F)cn1)N1CCCC(C2c3ccccc3CCc3ccccc32)C1 (centres unmarked) [Example 99]	25.3	
O=S(=O)(Nc1ccc(C(F)(F)F)cc1)N1CCCC(=C(c2ccc(F)cc2)c2ccc(F)cc2)C1 [Example 109]	19.2	
O=S(=O)(Nc1cccc(C(F)(F)F)c1)N1CCCC(C(c2ccc(F)cc2)c2ccc(F)cc2)C1 (centres unmarked) [Example 101]	22.1	
O=S(=O)(Nc1ccc(Cl)c(Cl)c1)N1CCCC(C(c2ccc(F)cc2)c2ccc(F)cc2)C1 (centres unmarked) [Example 100]	16.2	
O=S(=O)(Nc1ccc(C(F)(F)F)cc1)N1CCCC(C(c2ccc(F)cc2)c2ccc(F)cc2)C1 (centres unmarked) [Example 4, 3-(bis(4-fluorophenyl)methyl)-N-(4-(trifluoromethyl)phenyl)piperidine-1-sulfonamide]	17.1	9.61
O=S(=O)(Nc1cccc(Cl)c1)N1CCOC(C(c2ccc(F)cc2)c2ccc(F)cc2)C1 (centres unmarked) [Example 26]	28.2	
O=S(=O)(Nc1ccc(OC(F)(F)F)cc1)N1CCCC(C2c3ccc(F)cc3CCc3cc(F)ccc32)C1 (centres unmarked) [Example 71]	13	
O=S(=O)(Nc1ccc2c(c1)OC(F)(F)O2)N1CCCC(C2c3ccccc3CCc3ccccc32)C1 (centres unmarked) [Example 106]	12.8	
O=S(=O)(NCc1ccc(F)cc1)N1CCCC(C2c3ccccc3CCc3ccccc32)C1 (centres unmarked) [Example 96]	16.1	
O=S(=O)(Nc1ccccc1)N1CCCC(C(c2ccc(F)cc2)c2ccc(F)cc2)C1 (centres unmarked) [Example 2, 3-(bis(4-fluorophenyl)methyl)-N-phenylpiperidine-1-sulfonamide]	23	22.9
O=S(=O)(Nc1ccc(C(F)(F)F)cc1)N1CCCC(C2c3ccccc3CCc3ccccc32)C1 (centres unmarked) [Example 40]	15.8	
O=S(=O)(Nc1cccc(OC(F)(F)F)c1)N1CCCC(=C(c2ccc(F)cc2)c2ccc(F)cc2)C1 [Example 112]	24	
O=S(=O)(Nc1ccc(Cl)cc1)N1CCCC(C(c2ccc(F)cc2)c2ccc(F)cc2)C1 (centres unmarked) [Example 6, 3-(bis(4-fluorophenyl)methyl)-N-(4-chlorophenyl)piperidine-1-sulfonamide]		12.8
O=S(=O)(Nc1cc(Cl)cc(Cl)c1)N1CCOC(C(c2ccc(F)cc2)c2ccc(F)cc2)C1 (centres unmarked) [Example 94]	23.2	
